Test results as given in patent US20080076757A1, “MEDICINE FOR TREATING GASTROINTESTINAL DISORDER INCLUDING IRRITABLE BOWEL SYNDROME” (priority 2003, published 2008).

How the values were obtained:
depression = assay: Treatment of recurrent depression in the patient of Example 4; format: in vivo, human; settings: after several weeks of the SSRI anti-depressant
muscarinic receptors = assay: Effect on muscarinic receptors and bowels (statement of the inventor); set-up: species or system human
[1] = tested on: diarrhea-predominant irritable bowel syndrome (D-IBS); assay: Treatment of spinal-injury patients presenting diarrhea-predominant irritable bowel syndrome (case Examples 1, 3-6)
Description: The complaints include diarrhea-predominant irritable bowel syndrome (D-IBS, awake and sleeping).
The patient is treated with a total daily dose of medicine, which includes 25 mg of tricyclic antidepressant (imipramine hydrochloride) and 300 mg of stool softener (docusate sodium).

[2] = tested on: constipation-predominant IBS (C-IBS); settings: patients with C-IBS; cited from earlier work

**Q.** With `CNCCC(Oc1ccc(C(F)(F)F)cc1)c1ccccc1.Cl` (centres unmarked) [Prozac®] as the compound, how does the depression symptoms (depression) read?
**A.** begins to obtain relief from the depression symptoms

**Q.** Which muscarinic receptors affected (muscarinic receptors) does the source give for `CN(C)CCCN1c2ccccc2CCc2ccccc21` [imipramine, 5-[3-(dimethylamino)propyl]-10,11-dihydro-5H-dibenzazepine] here?
**A.** primarily affects the M2 and M3 muscarinic receptors

**Q.** Which results are given for `CN(C)CCCN1c2ccccc2CCc2ccccc21.O=C(O)c1cc2ccccc2c(Cc2c(O)c(C(=O)O)cc3ccccc23)c1O` [imipramine pamoate, 5-[3-(dimethylamino)propyl]-10,11-dihydro-5H-dibenzazepine 4,4-methlyenebis-(3-hydroxyl-2-napthoate)]?
**A.** control of bladder and bowel functions ([1]; Example 3: person, L5-S1 degenerative disc disease, 75 mg/day imipramine pamoate alone, oral, after several days): full control of bladder and bowel functions; adverse effect ([1]; Example 3, imipramine pamoate 75 mg/day without stool softener): develops constipation

**Q.** Which “abdominal pain or bloating” value [2] does the source give for `C=C1CCC2(O)C3Cc4ccc(OC5OC(C(=O)O)C(O)C(O)C5O)c5c4C2(CCN3CC2CC2)C1O5` (centres unmarked) [nalmefene glucuronide] here?
**A.** did not reduce abdominal pain or bloating

**Q.** What about the stool consistency [2] of the same compound?
**A.** stool consistency was not improved

**Q.** And the stool frequency [2]?
**A.** increased stool frequency

**Q.** What about the transit time [2] of the same compound?
**A.** decreased transit time
